The source of these data is US20240189304A1, “BET PROTEIN INHIBITORS AND USE THEREOF” (The Regents of the University of California, priority 2021, published 2024).

pIC50, pKd: −log10 of the molar value. Where “and” joins values, the source holds several entries; their conditions need not be identical. Equal entries are not always repeated.

One test deals with Brd4 ET (Homo sapiens, UniProt O60885). The conditions noted are these: peptide construct, read-out: binding affinity; cited from earlier work.
The next test deals with Molm-13 cells. The conditions noted are these: seven days post transduction; cited from earlier work.
For test [1], the system named is C4-2B MDVR cells. Briefly: C4-2B MDVR (enzalutamide resistant) cell growth, cell number. Format: cell-based. To be noted: for inhibition of cell growth (cell number): 5 μM. As to the method: (§1) Enzalutamide resistant C4-2B MDVR cells and darolutamide resistant C4-2B DaroR cells were treated with candidate compounds at 5 μM. BET (I-BET151; (R)-7-(3,5-dimethylisoxazol-4-yl)-8-methoxy-1-(1-(pyridin-2-yl)ethyl)-1,3-dihydro-2H-imidazo[4,5-c]quinolin-2-one; CAS RN 1300031-49-5) was used as the positive control at 5 μM. The cell number was determined. Only piperazine BET protein inhibitor 10 and the BET control inhibited both C4-2B MDVR and C4-2B DaroR cell growth at a concentration of 5 μM. Other compounds from the screen were not observed to effect cell growth under the test conditions.
C4-2B MDVR cells were treated with increasing doses of piperazine BET protein inhibitor 10 and compound 8 (8-(1-isopropyl-6-methyl-1H-pyrazolo[3,4-b]pyridine-5-carbonyl)-1,3-diazaspiro[4.5]decane-2,4-dione) as indicated. The cell number was determined after 3-day treatment.
(§2) C4-2B and C4-2B MDVR Cells were plated at 20,000 cells per well in 24-well plates and treated as indicated for 6 days. Total cell number was assessed by Coulter Counter. * indicates significant difference from control for each cell line, p<0.05.
C4-2B MDVR cells were plated at 20,000 cells per well in 24-well plates and treated for 5 days with the indicated compounds. The total cell number was determined and expressed as percentage of control. * indicates a significant difference from control, p<0.05.

For test [2], the system named is C4-2B MDVR cells. Put plainly: Growth inhibition in combination with enzalutamide, coefficient of drug interaction. The conditions noted are these: for CDI: with enzalutamide; for CDI / CDI with Enzalutamide: C4-2B MDVR cells; for CDI with Enzalutamide: treated for 5 days; for 3 Day CDI / 5 Day CDI: with enzalutamide (MDV). Format: cell-based. The procedure:
C4-2B AbiR: abiraterone resistance; C4-2B ApaR: apalutamide resistance; C4-2B DaroR: darolutamide resistance; C4-2B MDVR: enzalutamide resistance.
Piperidine BET protein inhibitor 2 was also found to synergize with enzalutamide in inhibiting the growth of enzalutamide-resistant C4-2b MDVR cells, as shown in FIG. 6A and FIG. 6B.
Organoids generated from enzalutamide resistant LuCaP35CR PDX tumors were treated with either piperazine BET protein inhibitor 10 at concentrations as indicated (A) or in combination with enzalutamide 20 μM(C) for 7 days; representative organoids were imaged under the fluorescence microscope after stained by LIVE/DEAD Viability/Cytotoxicity Kit (Invitrogen MP03224). Organoid viability was measured using CellTiter Glo (Promega Catelog#G9681) for piperazine BET protein inhibitor 10 single treatment (B) and for combinational treatment with enzalutamide (D, E). […] Blue indicates synergy while red indicates antagonism between drugs. The coefficient of drug interaction (CDI) is calculated as follows: CDI=AB/(A×B). A is growth inhibition effect of treatment with the BET protein inhibitor. B is growth inhibition effect of enzalutamide treatment. AB is the growth inhibition effect of the combination treatment. […] The coefficient of drug interaction (CDI) of 20 μM enzalutamide with 0.5 μM BET protein inhibitor combination treatment were 0.97 and 0.91 respectively in LuCaP35CR organoids, evidencing a synergistic effect (CDI=0.4222, <1).
C4-2B MDVR […], and then total cell numbers were determined. * indicates significant difference from control and ** indicates significant difference between Enza drug treatment and the combination treatment; p<0.05.

The subject of another test is C4-2B cells. Briefly: C4-2B cell growth, total cell number by Coulter Counter. Format: cell-based. The conditions noted are these: 1-40 μM, 6 days. The procedure:
as §2

Test [3] has as its system C4-2B DaroR cells. Put plainly: C4-2B DaroR (darolutamide resistant) cell growth, cell number. Format: cell-based. To be noted: 5 μM. As to the method: as §1
The target of another test is T1, BRD4 (Homo sapiens, UniProt O60885).
T1 construct: endogenous in cells; host or cells: C4-2B MDVR
Briefly: Western blot of BRD4 expression in C4-2B MDVR cells. Format: cell-based. The conditions noted are these: increasing doses, 2 days. The procedure:
(§3) C4-2B MDVR cells were treated with piperazine BET protein inhibitor 10 and the I-BET151 control at increasing doses for 2 days. The cell lysates were subjected to Western blot analysis for BRD4, AR-FL, and cMYC expression. As shown here, both piperazine BET protein inhibitor 10 and I-BET151 inhibited BRD4, AR-FL, and cMYC protein expression.

The test system of a further test is AR-FL. Put plainly: Western blot of AR-FL expression in C4-2B MDVR cells. Format: cell-based. To be noted: increasing doses, 2 days. As to the method:
as §3
In general terms: Immunoblotting shows a protein as a band on a membrane.

The next test has as its system cMYC. Briefly: cMYC expression in C4-2B MDVR cells. The conditions noted are these: increasing doses, 2 days, Western blot. Format: cell-based. The procedure:
as §3

A further test relates to C4-2B AbiR cells. Put plainly: Growth inhibition in combination with abiraterone, coefficient of drug interaction. Format: cell-based. The conditions noted are these: with abiraterone (Abi).
For a further test, the system named is C4-2B ApaR cells. Put plainly: Growth inhibition in combination with apalutamide, coefficient of drug interaction. Format: cell-based. To be noted: with apalutamide (Apa).
Test [4] concerns C4-2B DaroR cells. Put plainly: Growth inhibition in combination with darolutamide, coefficient of drug interaction. Format: cell-based. To be noted: with darolutamide (Daro).
Another test relates to MYC signaling pathway. Put plainly: Analysis of total RNA isolated from treated cells. Format: cell-based. The conditions noted are these: data not shown.
In test [5] the test system is LuCaP49 prostate cancer PDX. Put plainly: LuCaP49 prostate cancer PDX tumor growth in mice. Format: in vivo. To be noted: 60 mg/kg, i.p., daily, 5 days/week. The procedure: Mice bearing tumors from LuCaP49 prostate cancer PDX were treated with BETi-10 (60 mg/kg, i.p.) daily, 5 days/week. Tumor volume were measured and relative fold changes were calculated compared to the day 0 treatment.

With “17 amino acid region TWRVQRSQNPLKIRKTR(389′-405′) (SEQ ID NO:1) of MLV IN, minimal binding region for Brd4 ET [EBM]”, at Brd4 ET, the pKd was roughly 6.80. In the test with Molm-13 cells, the “reduction in cellular proliferation compared to vector control cells” value was roughly 10 fold.

As to `CC(C)n1nccc1NC(=O)C1CCCN(C(=O)c2ccc(Cl)c(Cl)c2)C1` (stereo not drawn) [Compound 2, 1-(3,4-dichlorobenzoyl)-N-(1-isopropyl-1H-pyrazol-5-yl)piperidine-3-carboxamide], the “inhibition of cell growth (total cell number)” value in the test on C4-2B MDVR cells [1] (1-40 μM, 6 days) is “inhibit the growth of C4-2B and C4-2B MDVR cells in a dose-dependent manner”; in the test on C4-2B cells it was “inhibit the growth of C4-2B and C4-2B MDVR cells in a dose-dependent manner”. The CDI with C4-2B MDVR cells [2] (3 Day, 10 μM 2) turned out to be 0.751; in the test on C4-2B MDVR cells [2] (3 Day, 20 μM 2), 0.8105; in the test with C4-2B MDVR cells [2] (5 Day, 10 μM 2), 0.792; in the test on C4-2B MDVR cells [2] (5 Day, 20 μM 2), 0.702.

As to `Cc1nc2c(cnn2C(C)C)cc1C(=O)C1CCC2(CC1)NC(=O)NC2=O` (stereo not drawn) [Compound 8, 8-(1-isopropyl-6-methyl-1H-pyrazolo[3,4-b]pyridine-5-carbonyl)-1,3-diazaspiro[4.5]decane-2,4-dione], in the test on C4-2B MDVR cells [1] (3-day treatment), the “growth inhibition at increasing doses” value is “no growth inhibition was observed”.

The pIC50 is the IC50 on a negative log10 scale, so that one unit is a factor of ten. Consider `O=C(Nc1cccc(C(=O)N2CCN(CCOc3ccc(Cl)cc3)CC2)c1)C1CCCO1` (stereo not drawn) [Compound 10, N-(3-(4-(2-(4-chlorophenoxy)ethyl)piperazine-1-carbonyl)phenyl)tetrahydrofuran-2-carboxamide], for which the “inhibition of cell growth (cell number)” value in the test with C4-2B MDVR cells [1] and in the test on C4-2B DaroR cells [3] was “inhibited” each time. Also, in the test with C4-2B MDVR cells [1] (3-day treatment), the “growth inhibition at increasing doses” value is “inhibited growth of C4-2B MDVR cells in a dose-dependent manner”. The compound further gave a pIC50 in the test on C4-2B MDVR cells [1] (72 h, 3-day treatment) of 5.68 to 5.77. The BRD4 protein expression entry at BRD4 is “inhibited”. Besides, the AR-FL protein expression result in the test with AR-FL is recorded as “inhibited”. Further, the cMYC protein expression entry with cMYC was “inhibited”. For the same compound, the “3 Day CDI” value is given as 1.019 in the test on C4-2B AbiR cells (1 μM (10)); 0.914 in the test with C4-2B AbiR cells (2.5 μM (10)); 0.7981 in the test on C4-2B ApaR cells (1 μM (10)); 0.7358 in the test on C4-2B ApaR cells (2.5 μM (10)); 0.6607 in the test with C4-2B DaroR cells [4] (1 μM (10)); 0.6111 in the test on C4-2B DaroR cells [4] (2.5 μM (10)). Besides, the “3 Day CDI” value amounted to 0.6791 with C4-2B MDVR cells [2] (1 μM (10)) and 0.5693 with C4-2B MDVR cells [2] (2.5 μM (10)). Moreover, the “5 Day CDI” value was 1.362 with C4-2B AbiR cells (1 μM (10)); 0.98 and 0.9835 in the test on C4-2B AbiR cells (2.5 μM (10)); 0.639 in the test with C4-2B ApaR cells (1 μM (10)); 0.54 and 0.5381 in the test with C4-2B ApaR cells (2.5 μM (10)); 0.4574 in the test with C4-2B DaroR cells [4] (1 μM (10)); 0.38 and 0.3762 with C4-2B DaroR cells [4] (2.5 μM (10)). The “5 Day CDI” value in the test with C4-2B MDVR cells [2] (1 μM (10)) is 0.3464; in the test with C4-2B MDVR cells [2] (2.5 μM (10)), 0.26 and 0.2628. In addition, in the test on C4-2B MDVR cells [2], the “CDI with Enzalutamide” value came out at 0.76. In addition, in the test with MYC signaling pathway, the “inhibition of the MYC signaling pathway” value is listed as “inhibit the MYC signaling pathway”. Also, the “tumor growth (tumor volume, relative fold change to day 0)” value in test [5] is recorded as “inhibit the growth”.

With `O=C(Nc1cccc(C(=O)N2CCN(CCOc3ccc(Cl)cc3)CC2)c1)c1ccco1` [Compound 11, N-(3-(4-(2-(4-chlorophenoxy)ethyl)piperazine-1-carbonyl)phenyl)furan-2-carboxamide], in the test on C4-2B MDVR cells [2], the “CDI with Enzalutamide” value amounted to 0.90. In addition, in the test with MYC signaling pathway, the “inhibition of the MYC signaling pathway” value was “inhibit the MYC signaling pathway”.

Take `N[C@@H](Cc1c[nH]c2ccccc12)C(=O)Nc1cccc(C(=O)N2CCN(CCOc3ccc(Cl)cc3)CC2)c1` [Compound 12, (S)-2-Amino-N-(3-(4-(2-(4-chlorophenoxy)ethyl)piperazine-1-carbonyl)phenyl)-3-(1H-indol-3-yl)propenamide]: the “CDI with Enzalutamide” value with C4-2B MDVR cells [2] was 0.90.

As to `CC(C)(C)OC(=O)N[C@@H](Cc1c[nH]c2ccccc12)C(=O)Nc1cccc(C(=O)N2CCN(CCOc3ccc(Cl)cc3)CC2)c1` [Compound 13], the “CDI with Enzalutamide” value in the test on C4-2B MDVR cells [2] worked out at 0.81.

Turning to `N[C@@H](Cc1c[nH]cn1)C(=O)Nc1cccc(C(=O)N2CCN(CCOc3ccc(Cl)cc3)CC2)c1` [Compound 14, (S)-2-Amino-N-(3-(4-(2-(4-chlorophenoxy)ethyl)piperazine-1-carbonyl)phenyl)-3-(1H-imidazol-4-yl)propenamide], the “CDI with Enzalutamide” value in the test on C4-2B MDVR cells [2] is listed as 0.82.

For the compound `COc1cc2c(cc1-c1c(C)noc1C)ncc1[nH]c(=O)n([C@H](C)c3ccccn3)c12` [I-BET151, (R)-7-(3,5-dimethylisoxazol-4-yl)-8-methoxy-1-(1-(pyridin-2-yl)ethyl)-1,3-dihydro-2H-imidazo[4,5-c]quinolin-2-one, reference compound], the “inhibition of cell growth (cell number)” value with C4-2B MDVR cells [1] and in the test on C4-2B DaroR cells [3] was “inhibited” throughout. Also, the BRD4 protein expression result on BRD4 is “inhibited”. In addition, the AR-FL protein expression entry with AR-FL is listed as “inhibited”. Further, the cMYC protein expression entry in the test on cMYC is recorded as “inhibited”.
